Experimental data taken from ChEMBL document CHEMBL1135781 (J Med Chem, 2002).

Target: Melatonin receptor (Homo sapiens, UniProt P48039+P49286)
Assay: Ability to inhibit 2-[125I]iodomelatonin specific binding to human melatonin receptor type 1A (MT1) expressed in CHO cells.
Format: cell-based

Structure (SMILES): COc1ccc2c(c1)C(CCNC(C)=O)CC2 (stereo not drawn)
- Ki: 0.131 nM

Structure (SMILES): COc1ccc2c(c1)C(CCNC(=O)C(F)(F)F)=C(c1ccccc1)C2
- Ki: 0.00602 nM

Structure (SMILES): CCCC(=O)NCCC1CCc2ccc(OC)cc21 (stereo not drawn)
- Ki: 0.0553 nM

Structure (SMILES): COc1ccc2c(c1)C(CCNC(=O)C(F)(F)F)C(c1ccccc1)C2 (stereo not drawn)
- Ki: 1.6 nM

Structure (SMILES): COc1ccc2c(c1)[C@H](CCNC(C)=O)CC2
- Ki: 0.0733 nM

Structure (SMILES): CCCC(=O)NCC[C@H]1CCc2ccc(OC)cc21
- Ki: 43.7 nM

Structure (SMILES): CCCC(=O)NCC[C@@H]1CCc2ccc(OC)cc21
- Ki: 0.0321 nM

Structure (SMILES): COc1ccc2c(c1)[C@@H](CCNC(C)=O)CC2
- Ki: 10.6 nM
